What was measured:
[1] = test system: luciferase gene (pGL3) stably expressed by A549-GL3Luc cells; assay: Luciferase gene (pGL3) silencing by GL3Luc siRNA transfection of A549-GL3Luc cells; type: cell-based, human; details: 48 h
Method: A549 (human lung carcinoma, ATCC No CCL-185) cells stably expressing the GL3 luciferase (Photinus pyralis luciferase under the control of SV40 elements) were obtained after stable transfection of pGL3Luc plasmid (Clontech). A549-GL3Luc cells were grown in RPMI-1640 and supplemented with 10% fetal bovine serum, 2 mM glutamax, 100 units/ml penicillin, 100 μg/ml streptomycin and 0.8 μg/ml G418 (Promega). All the cells were maintained at 37° C. in a 5% CO2 humidified atmosphere.
One day before transfection, 2.5×10^4 cells were seeded in 24-well tissue culture plate in 1 ml fresh complete medium containing 10% FBS. Before transfection, complexes of siRNA/transfection reagent were prepared. The desired amount of siRNAs was diluted in 100 μl of serum-free medium. The solution was mixed with a Vortex for 10 seconds. Then, 0.5 μl to 3 μl of amphiphilic molecules-based formulations were added to siRNA solution. The final mixture was mixed with a Vortex for 10 seconds, and left for 10 minutes at room temperature. Then, 100 μl of complexes solution were added per well and the plates were incubated at 37° C. […]
For all transfection protocols, the plates were further incubated at 37° C. for 48 h.
Luciferase gene expression was measured using a commercial kit (Promega, France). After removing the complete medium, three washings with 1 ml of PBS solution were made. Then, 100 μl of 1× lysis buffer were added per well, and the plate was incubated at room temperature for 30 minutes. The lysates were collected and centrifuged at 14,000 g for 5 minutes. The luciferase assay was assessed with 5 μl of lysate after injection of 100 μl of luciferin solution. The luminescence (RLU) was monitored with an integration over 10 seconds with a luminometer (LB960, Berthold, France). Results are expressed as light units integrated over 10 seconds (RLU), per mg of cell protein using the BCA assay (Pierce, France).
As a target model of endogenous reporter gene, A549 cells stably expressing the GL3 luciferase were used (Photinus pyralis luciferase under the control of SV40 elements). A well defined and conventional siRNA, chemically produced, and sequence-specific GL3Luc siRNA of SEQ ID No 1 and 2 composed of a short dsRNA of 19 nucleotides matching the GL3Luc mRNA and comprising 3′-overhangs of 2 deoxyribonucleotides (dT) was used for the transfection experiments. A formulation of cationic amphiphile MONI at 1 mM and combined with neutral phospholipid DOPE at 1 mM in ethanol was prepared. SiRNA diluted in serum-free medium (100 μl) was then complexed with 2 μl of the formulation of MONI/DOPE (1 mM/1 mM in ethanol). The resulting solution of transfection complexes was added on the cells growing in medium containing serum and cells were finally exposed to siRNA concentration range from 100 to 2000 pM (FIG. 1). The silencing efficiency was determined 48 h post-transfection by measuring the luciferase activity with a standard luminescence assay normalized by the protein content of cell lysates. The luciferase activity (expressed as RLU/mg of protein) was inhibited up to 90% when the transfection was performed with 2000 pM of siRNA.
Formulations composed of amphiphilic cationic molecule/DOPE (1 mM/2 mM in 10% ethanol and water) were used to complex siRNA and transfect A549-GL3Luc cells. Luciferase gene expression was measured after 48 h incubation period. Experiments were made in triplicates and the GL3 luciferase silencing efficiency was calculated from the luciferase level of transfected cells with a control GL2-Luc siRNA and normalized by the content of protein in the cell lysates.

[2] = test system: luciferase gene (pGL3) stably expressed by A549-GL3Luc cells; assay: Reverse transfection in 96-well plate, luciferase silencing in A549-GL3Luc cells; type: cell-based, human; details: transfected with liposomal MONI/DOPE (½ mM), 48 h
Method: GL3Luc siRNA diluted in 50 μl of serum free medium were complexed (in 96-well tissue culture plate format, n=6) for 5 minutes with 1 μl of formulation composed of MONI/DOPE in water (1 mM/2 mM). Then, 10,000 A549-GL3Luc cells, stably expressing the luciferase gene, in 125 μl of medium containing serum were added per well. Luciferase gene expression was measured after 48 h incubation period. As unspecific siRNA control, siRNA matching the GL2 luciferase sequence were transfected in the same conditions. Luciferase gene expression was measured after 48 h incubation period and the luciferase activity was expressed as Relative Light Unit (RLU) normalized by the content of protein in the cell lysates (mg of protein). GL3 luciferase silencing efficiency (FIG. 3B) was calculated from the endogenous luciferase level of untransfected A549-GL3Luc cells normalized by the content of protein in the cell lysates.
Complexes of siRNA/transfection reagent were prepared first. […]
Luciferase gene expression was measured using a commercial kit (Promega, France). […] The luciferase assay was assessed with 5 μl of lysate after injection of 100 μl of luciferin solution. The luminescence (RLU) was monitored with an integration over 10 seconds with a luminometer (LB960, Berthold, France). Results are expressed as light units integrated over 10 seconds (RLU), per mg of cell protein using the BCA assay (Pierce, France). […]

Substance: GL2Luc siRNA: siRNA duplex SEQ ID No 3 and 4 matching the GL2 luciferase sequence, unspecific control (chain 1 CGUACGCGGAAUACUUCGATT; chain 2 TTGCAUGCGCCUUAUGAAGCU; chemistry not fully specified; one strand is listed 3' to 5') [reference compound]
- luciferase level with unrelated GL2Luc siRNA ([1]; transfected with MONBI 1 mM/DOPE 2 mM in ethanol, same conditions): the luciferase level was not affected
- effect of unrelated GL2Luc siRNA on luciferase activity ([1]; transfected with MONI/DOPE 1 mM/1 mM in ethanol, same conditions (100 to 2000 pM)): absence of effect on the luciferase activity
- luciferase inhibition with unrelated GL2Luc siRNA, reverse transfection [2]: absence of luciferase inhibition

From patent publication US8399422B2, “Compositions for transfection of oligonucleotides active for gene silencing and their biological and therapeutical applications” (Polyplus-Transfection, priority 2006, dated 2013)
